In patent US20190255091A1, “RNAi AGENTS FOR [sequence] B VIRUS INFECTION” (priority 2016, published 2019):
Values joined by “and” are separate entries in the source; they are usually repeats but may differ in a detail not shown here. Identical values can stand only once.

Tests used:
Assay type in all cases: in vivo
Hepatitis B Virus (HBV) [1] = experiment: Serum HBV DNA levels in pHBV model mice (qPCR); conditions: 0.8 mg/kg, injection on day 1 and day 22, Example 16
From the text: (§1) Six to eight-week-old female NOD.CB17-Prkdscid/NcrCrl (NOD-SCID) mice were transiently transfected in vivo with MC-HBV1.3 by hydrodynamic tail vein injection (Yang P L et al. “Hydrodynamic injection of viral DNA: a mouse model of acute hepatitis B virus infection,” PNAS USA 2002 Vol. 99: p. 13825-13830), administered 30 to 45 days prior to administration of an HBV RNAi agent or control. MC-HBV1.3 is a plasmid-derived minicircle that contains the same terminally redundant human hepatitis B virus sequence HBV1.3 as in plasmid pHBV1.3 and in the HBV1.3.32 transgenic mice (GenBank accession #V01460) (Guidotti L G et al., “High-level hepatitis B virus replication in transgenic mice,” J Virol 1995 Vol. 69, p 6158-6169.). 5 or 10 μg MC-HBV1.3 in Ringer's Solution in a total volume of 10% of the animal's body weight was injected into mice via tail vein to create pHBV model of chronic HBV infection. The solution was injected through a 27-gauge needle in 5-7 seconds as previously described (Zhang G et al., “High levels of foreign gene expression in hepatocytes after tail vein injection of naked plasmid DNA.” Human Gene Therapy 1999 Vol. 10, p 1735-1737.). At pre-dose (either day 1 pre-dose, day −1, or day −2), Hepatitis B surface antigen (HBsAg) HBsAg expression levels in serum were measured by ELISA and the mice were grouped according to average HBsAg expression levels.
(§2) HBV expression levels were normalized to pre-administration expression levels and to control mice injected with phosphate buffered saline (“PBS”).
Equal volumes of serum from mice in a group or subgroup were pooled to a final volume of 100 μL. DNA was isolated from serum samples using the QIAamp MinElute Virus Spin Kit (Qiagen, Valencia, Calif.) following the manufacturer's instructions. Sterile 0.9% saline was added to each sample to a final volume of 200 μL. Serum samples were added to tubes containing buffer and protease. Carrier RNA was added to aid in the isolation of small amounts of DNA. […] After incubating 15 min at 56° C., nucleic acids were precipitated from the lysates with ethanol and the entire solution applied to a column. After washing, the samples were eluted into a volume of 50 μL Buffer AVE.
The number of copies of HBV genomes in DNA isolated from the pHBV mouse model serum was determined by qPCR. Plasmid pSEAP-HBV353-777, encoding a short segment of the HBV genome within the S gene (bases 353-777 of GenBank accession #V01460), was used to create a six log standard curve. Samples with recovery of DNA below 2 standard deviations from the average, based on detection of pHCR/UbC-SEAP were omitted. TaqMan chemistry-based primers and probes with fluor/ZEN/IBFQ are utilized.
qPCR assays were performed on a 7500 Fast or StepOne Plus Real-Time PCR system (Life Technologies). For evaluation of HBV DNA in serum, DNA was isolated from singlet or duplicate purification steps from pooled group serum samples. Quantitations of HBV DNA and recovery control plasmid were determined by qPCR reactions performed in triplicate. The probes to quantitate HBV and pHCR/UbC-SEAP were included in each reaction.

Hepatitis B Virus (HBV) [2] = experiment: Serum HBeAg levels in pHBV model mice (ELISA); conditions: 0.8 mg/kg, injection on day 1 and day 22, Example 16
From the text: as §1, §2
HBeAg analysis was performed with the HBeAg enzyme linked immunosorbent assay (ELISA) as described by the manufacturer (DiaSorin) using serum diluted 4- to 20-fold in 5% nonfat dry milk. The amount of antigen was determined in the linear range of the assay and quantitated against HBeAg protein standards (Fitzgerald Industries International, catalog #30-AH18, Acton, Mass.).
HBeAg expression for each animal was normalized to the control group of mice injected with PBS in order to account for the non-treatment related decline in expression of MC-HBV1.3. For evaluation of HBeAg in serum, HBeAg is analyzed from pooled group or subgroup serum samples. First, the HBeAg level for each pooled group or subgroup was divided by the pre-treatment level of expression in the same group or subgroup in order to determine the ratio of expression “normalized to pre-treatment”. Expression at a specific time point was then normalized to the control group by dividing the “normalized to pre-treatment” ratio for a group or subgroup by the average “normalized to pre-treatment” ratio of all samples from the normal PBS control group.

Hepatitis B Virus (HBV) [3] = experiment: Serum HBsAg levels in pHBV model mice (ELISA); design: key to Average HBsAg levels normalized to pre-treatment (day −1) and PBS control / Average HBsAg levels normalized to pre-treatment and PBS control: fraction of pre-treatment level, relative to PBS control mean; conditions: for Average HBsAg normalized to pre-treatment and PBS control: 2.0 mg/kg, single s.c. injection on day 1
From the text: as §1, §2
Mice were anesthetized with 2-3% isoflurane and blood samples were collected from the submandibular area into serum separation tubes (Sarstedt AG & Co., Nümbrecht, Germany). Blood was allowed to coagulate at ambient temperature for 20 min. The tubes were centrifuged at 8,000×g for 3 min to separate the serum and stored at 4° C.
Serum was collected and diluted 10 to 8000-fold in PBS containing 5% nonfat dry milk. […] HBsAg levels were determined with a GS HBsAg EIA 3.0 kit (Bio-Rad Laboratories, Inc., Redmond, Wash.) as described by the manufacturer. Recombinant HBsAg protein, ayw subtype, also diluted in nonfat milk in PBS, was used as a primary standard (Aldevron).
HBsAg expression for each animal was normalized to the control group of mice injected with PBS in order to account for the non-treatment related decline in expression of MC-HBV1.3. First, the HBsAg level for each animal at a time point was divided by the pre-treatment level of expression in that animal in order to determine the ratio of expression “normalized to pre-treatment”. Expression at a specific time point was then normalized to the control group by dividing the “normalized to pre-treatment” ratio for an individual animal by the average “normalized to pre-treatment” ratio of all mice in the normal PBS control group.

Substance: AD05070: HBV RNAi agent duplex AM06606-AS/AM06605-SS (antisense UACCAAUUUAUGCCUACAGCG; sense CGCUGUAGGCAUAAAUUGGUA; chemistry not fully specified)
- Average Serum HBV DNA levels normalized to pre-treatment and PBS control (Hepatitis B Virus (HBV) [1]; Day 8): 1.124 ± 0.142
- Average Serum HBV DNA levels normalized to pre-treatment and PBS control (Hepatitis B Virus (HBV) [1]; Day 15): 0.742 ± 0.127
- Average Serum HBV DNA levels normalized to pre-treatment and PBS control (Hepatitis B Virus (HBV) [1]; Day 22): 0.807 ± 0.192
- Average HBeAg levels normalized to pre-treatment and PBS control (Hepatitis B Virus (HBV) [2]; Day 8): 0.634
- Average HBeAg levels normalized to pre-treatment and PBS control (Hepatitis B Virus (HBV) [2]; Day 15): 0.594 ± 0.082
- Average HBeAg levels normalized to pre-treatment and PBS control (Hepatitis B Virus (HBV) [2]; Day 22): 0.840 ± 0.152
- Average HBeAg levels normalized to pre-treatment and PBS control (Hepatitis B Virus (HBV) [2]; Day 29): 0.271 ± 0.029
- Average HBsAg levels normalized to pre-treatment and PBS control (Hepatitis B Virus (HBV) [3]; Day 8, 0.8 mg/kg, injection on day 1 and day 22, Example 16): 0.446 ± 0.143
- Average HBsAg levels normalized to pre-treatment and PBS control (Hepatitis B Virus (HBV) [3]; Day 8, 0.8 mg/kg, single s.c. injection day 1, Example 8): 0.355 ± 0.099 and 0.271 ± 0.058
- Average HBsAg normalized to pre-treatment and PBS control (Hepatitis B Virus (HBV) [3]; Day 8, Example 15): 0.081 ± 0.026
- Average HBsAg levels normalized to pre-treatment and PBS control (Hepatitis B Virus (HBV) [3]; Day 14, 0.8 mg/kg, single s.c. injection day 1, Example 8): 0.366 ± 0.069 and 0.334 ± 0.060
- Average HBsAg levels normalized to pre-treatment and PBS control (Hepatitis B Virus (HBV) [3]; Day 14, 4.0 mg/kg, single s.c. injection day 1, Example 8): 0.069 ± 0.039 and 0.079 ± 0.047
- Average HBsAg levels normalized to pre-treatment and PBS control (Hepatitis B Virus (HBV) [3]; Day 15, 0.8 mg/kg, injection on day 1 and day 22, Example 16): 0.376 ± 0.120
- Average HBsAg normalized to pre-treatment and PBS control (Hepatitis B Virus (HBV) [3]; Day 15, Example 15): 0.127 ± 0.031
- Average HBsAg levels normalized to pre-treatment and PBS control (Hepatitis B Virus (HBV) [3]; Day 21, 0.8 mg/kg, single s.c. injection day 1, Example 8): 0.464 ± 0.055
- Average HBsAg levels normalized to pre-treatment and PBS control (Hepatitis B Virus (HBV) [3]; Day 21, 4.0 mg/kg, single s.c. injection day 1, Example 8): 0.145 ± 0.082
- Average HBsAg levels normalized to pre-treatment and PBS control (Hepatitis B Virus (HBV) [3]; Day 22, 0.8 mg/kg, injection on day 1 and day 22, Example 16): 0.474 ± 0.149
- Average HBsAg normalized to pre-treatment and PBS control (Hepatitis B Virus (HBV) [3]; Day 22, Example 15): 0.223 ± 0.057
- Average HBsAg levels normalized to pre-treatment and PBS control (Hepatitis B Virus (HBV) [3]; Day 28, 0.8 mg/kg, single s.c. injection day 1, Example 8): 0.624 ± 0.053
- Average HBsAg levels normalized to pre-treatment and PBS control (Hepatitis B Virus (HBV) [3]; Day 28, 4.0 mg/kg, single s.c. injection day 1, Example 8): 0.135 ± 0.061
- Average HBsAg levels normalized to pre-treatment and PBS control (Hepatitis B Virus (HBV) [3]; Day 29, 0.8 mg/kg, injection on day 1 and day 22, Example 16): 0.338 ± 0.123
- Average HBsAg normalized to pre-treatment and PBS control (Hepatitis B Virus (HBV) [3]; Day 29, Example 15): 0.330 ± 0.112
- Average HBsAg normalized to pre-treatment and PBS control (Hepatitis B Virus (HBV) [3]; Day 36, Example 15): 0.472 ± 0.121
- Average HBsAg normalized to pre-treatment and PBS control (Hepatitis B Virus (HBV) [3]; Day 43, Example 15): 0.515 ± 0.126
- Average HBsAg normalized to pre-treatment and PBS control (Hepatitis B Virus (HBV) [3]; Day 50, Example 15): 0.689 ± 0.167
- knockdown of HBsAg compared to PBS control (Hepatitis B Virus (HBV) [3]; Example 15, administered alone or in combination with AD04872, across each of the time points measured): significant knockdown of HBsAg
